Test results from ChEMBL document CHEMBL1201862, “PubChem BioAssay data set” (2004).
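Growth conditions: 96-well plates. Treatment: test compound, 48 hours, 5 concentrations. Analysis: linear interpolation between bracketing concentrations; unreached endpoints set to highest concentration. The concentration for 50% growth inhibition is given as GI50.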 Active and inactive are the calls of the source. Cut-off read from the data, not from the text of the source: active = GI50 up to about 1.1 µM and inactive = higher.

Assays:
Test in all cases: NCI tumour cell line growth inhibition, 48 h
[1] = tested on: 786-0
[2] = tested on: A498
[3] = tested on: HCT-116
[4] = tested on: HL-60
[5] = tested on: HT-29
[6] = tested on: IGROV-1
[7] = tested on: KM12
[8] = tested on: M14
[9] = tested on: Malme-3M
[10] = tested on: NCI-H460
[11] = tested on: OVCAR-5
[12] = tested on: OVCAR-8
[13] = tested on: RPMI-8226
[14] = tested on: SK-MEL-2
[15] = tested on: SK-MEL-5
[16] = tested on: SNB-19
[17] = tested on: SNB-75
[18] = tested on: TK-10
[19] = tested on: HCC 2998

SMILES | GI50 [1] | GI50 [2] | GI50 [3] | GI50 [4] | GI50 [5] | GI50 [6] | GI50 [7] | GI50 [8] | GI50 [9] | GI50 [10] | GI50 [11] | GI50 [12] | GI50 [13] | GI50 [14] | GI50 [15] | GI50 [16] | GI50 [17] | GI50 [18] | GI50 [19]
CCCCCCCCCCOC(=O)c1cc[n+](C)cc1 | 17.6 µM (inactive) | 15.6 µM (inactive) | 18.3 µM (inactive) | 17.8 µM (inactive) | 16.7 µM (inactive) | 16.6 µM (inactive) | 16.9 µM (inactive) | 18 µM (inactive) | 17.1 µM (inactive) | 21 µM (inactive) | 13.6 µM (inactive) | 17.2 µM (inactive) | 16.3 µM (inactive) | 17.3 µM (inactive) | 19.1 µM (inactive) | 16.2 µM (inactive) | 19.3 µM (inactive) | 17.1 µM (inactive) | 
O=C1Nc2ccc(Br)cc2/C1=N/Nc1ccc([N+](=O)[O-])cc1[N+](=O)[O-] | 2.77 µM (inactive) |  | 1.55 µM (inactive) | 1.92 µM (inactive) | 3.78 µM (inactive) | 7.74 µM (inactive) | 4.13 µM (inactive) | 4.8 µM (inactive) | 3.08 µM (inactive) |  |  | 3.93 µM (inactive) | 2.81 µM (inactive) | 2.13 µM (inactive) | 1.83 µM (inactive) | 4.71 µM (inactive) | 4.1 µM (inactive) | 17.1 µM (inactive) | 10.2 µM (inactive)
COC(OC)c1cccc2c1C(=O)CCC1(O)c3ccccc3C1C2 (stereo unspecified) | > 100 µM (inactive) |  | 33.7 µM (inactive) | 35.2 µM (inactive) | > 100 µM (inactive) | > 100 µM (inactive) | 74 µM (inactive) | > 100 µM (inactive) | > 100 µM (inactive) |  | > 100 µM (inactive) | > 100 µM (inactive) | 12.2 µM (inactive) | > 100 µM (inactive) | > 100 µM (inactive) | > 100 µM (inactive) | > 100 µM (inactive) | > 100 µM (inactive) | > 100 µM (inactive)
CC1CC(=O)C2CC(CO)=CCCC2C1(C)CC/C(=C/CO)CO (stereo unspecified) | > 100 µM (inactive) | > 100 µM (inactive) | > 100 µM (inactive) |  | > 100 µM (inactive) | > 100 µM (inactive) | > 100 µM (inactive) | > 100 µM (inactive) | > 100 µM (inactive) | > 100 µM (inactive) |  | > 100 µM (inactive) | > 100 µM (inactive) |  | > 100 µM (inactive) |  | > 100 µM (inactive) | > 100 µM (inactive) | > 100 µM (inactive)
NCc1cccc(O)c1O | > 100 µM (inactive) | > 100 µM (inactive) | 79.8 µM (inactive) | 38.7 µM (inactive) | > 100 µM (inactive) |  | > 100 µM (inactive) | > 100 µM (inactive) | > 100 µM (inactive) | > 100 µM (inactive) | > 100 µM (inactive) | > 100 µM (inactive) | > 100 µM (inactive) | > 100 µM (inactive) | > 100 µM (inactive) | > 100 µM (inactive) | > 100 µM (inactive) | > 100 µM (inactive) | 
[N-]=[N+]=NC(c1cn(C2CC(O)C(CO)O2)c(=O)[nH]c1=O)C(Br)I (stereo unspecified) | > 100 µM (inactive) |  | > 100 µM (inactive) | > 100 µM (inactive) | > 100 µM (inactive) | > 100 µM (inactive) | > 100 µM (inactive) | > 100 µM (inactive) | > 100 µM (inactive) | > 100 µM (inactive) | > 100 µM (inactive) | > 100 µM (inactive) | > 100 µM (inactive) | > 100 µM (inactive) | > 100 µM (inactive) | > 100 µM (inactive) | > 100 µM (inactive) | > 100 µM (inactive) | > 100 µM (inactive)
O=c1c2cccnc2ncn1CCN1CCCC1 | > 100 µM (inactive) |  | > 100 µM (inactive) |  | > 100 µM (inactive) | > 100 µM (inactive) | > 100 µM (inactive) | > 100 µM (inactive) | > 100 µM (inactive) | > 100 µM (inactive) | > 100 µM (inactive) | > 100 µM (inactive) |  | > 100 µM (inactive) | > 100 µM (inactive) | > 100 µM (inactive) | > 100 µM (inactive) | > 100 µM (inactive) | > 100 µM (inactive)
BrC1=CCC23CC=C(Br)[C@H]4CC2(COC3)C[C@@H]1O4 (stereo partly specified) | 33.2 µM (inactive) |  | 29.2 µM (inactive) | 6.41 µM (inactive) | > 10 µM (inactive) | > 100 µM (inactive) | 54.2 µM (inactive) | > 100 µM (inactive) | > 100 µM (inactive) | 48 µM (inactive) | 21.2 µM (inactive) | 63.8 µM (inactive) | 39.6 µM (inactive) | 54.7 µM (inactive) | > 100 µM (inactive) | 37.9 µM (inactive) | 20.1 µM (inactive) | 80.2 µM (inactive) | 
C=C1C[C@]23C[C@@]1(O)CC[C@H]2[C@@]12C=C[C@H](O)[C@@](C)(C(=O)O1)[C@H]2[C@@H]3C(=O)O [GIBBERELLIN A3] | > 100 µM (inactive) |  | > 100 µM (inactive) | > 100 µM (inactive) | > 100 µM (inactive) | > 100 µM (inactive) | > 100 µM (inactive) | > 100 µM (inactive) | > 100 µM (inactive) | > 100 µM (inactive) | > 100 µM (inactive) |  | > 100 µM (inactive) | > 100 µM (inactive) | > 100 µM (inactive) | > 100 µM (inactive) | > 100 µM (inactive) | > 100 µM (inactive) | > 100 µM (inactive)
O=C(c1ccccc1)c1c(CC(O)c2ccccn2)n(C(=O)c2ccccc2)c2ccccc12 (stereo unspecified) | 26.1 µM (inactive) |  | 14 µM (inactive) | > 10 µM (inactive) | 15 µM (inactive) | 23.7 µM (inactive) | 28.4 µM (inactive) | 18.9 µM (inactive) | 18.6 µM (inactive) | 21.5 µM (inactive) | 20.7 µM (inactive) | 29.2 µM (inactive) | 21.3 µM (inactive) | 14.9 µM (inactive) | 13.9 µM (inactive) | 34.1 µM (inactive) | 8.04 µM (inactive) | 38.4 µM (inactive) | 31.5 µM (inactive)
CC(C)C.C[N+](C)(C)C.OC(c1ccccc1)(C(F)(F)F)C(F)(F)F.OC(c1ccccc1)(C(F)(F)F)C(F)(F)F.[SiH3-] | 2.97 µM (inactive) |  | 3.46 µM (inactive) |  | 3.64 µM (inactive) |  | 3.92 µM (inactive) | 1.05 µM (active) | 11.1 µM (inactive) | 2.04 µM (inactive) | 2.28 µM (inactive) | 9.23 µM (inactive) | 4.43 µM (inactive) | 9.1 µM (inactive) | 10.4 µM (inactive) | 3.26 µM (inactive) | 0.536 µM (active) | 12.6 µM (inactive) | 3.56 µM (inactive)
CCCCCCCCCCCc1noc2c1C(=O)C(O)CC2 (stereo unspecified) | 17.9 µM (inactive) | 34.9 µM (inactive) | 17.6 µM (inactive) | 23.9 µM (inactive) | 18.8 µM (inactive) | 50 µM (inactive) | 22.9 µM (inactive) | 27.2 µM (inactive) |  | 20 µM (inactive) | 18.2 µM (inactive) | 18.9 µM (inactive) | 25 µM (inactive) | 17.5 µM (inactive) | 14.6 µM (inactive) | 22.1 µM (inactive) | 24.1 µM (inactive) | 56.6 µM (inactive) | 
COc1ccc2c(C3(O)CCNCC3)c[nH]c2c1 | > 100 µM (inactive) |  |  | > 100 µM (inactive) | > 100 µM (inactive) | > 100 µM (inactive) | > 100 µM (inactive) | > 100 µM (inactive) | > 100 µM (inactive) | > 100 µM (inactive) | > 100 µM (inactive) | > 100 µM (inactive) | > 100 µM (inactive) | > 100 µM (inactive) | > 100 µM (inactive) | > 100 µM (inactive) | > 100 µM (inactive) | > 100 µM (inactive) | > 100 µM (inactive)
CC1C=C(OC(=O)c2ccccc2)C(=O)C(n2cc(F)c(=O)n(C(=O)c3ccccc3)c2=O)O1 (stereo unspecified) | 28.5 µM (inactive) |  | 32.1 µM (inactive) | 23.9 µM (inactive) | 34.7 µM (inactive) | > 100 µM (inactive) |  | 51.3 µM (inactive) | 31 µM (inactive) | > 100 µM (inactive) |  | 37.2 µM (inactive) | 38.1 µM (inactive) | 45.3 µM (inactive) | 73.8 µM (inactive) | > 100 µM (inactive) | 49.2 µM (inactive) | 69.3 µM (inactive) | 
O=C(/C(=N/Nc1ccccc1)c1ccc([N+](=O)[O-])cc1)c1ccc([N+](=O)[O-])cc1 | > 100 µM (inactive) |  | > 100 µM (inactive) |  | 20.7 µM (inactive) | > 100 µM (inactive) | > 100 µM (inactive) | > 100 µM (inactive) | > 100 µM (inactive) | > 100 µM (inactive) | > 100 µM (inactive) | > 100 µM (inactive) | 93.3 µM (inactive) | > 100 µM (inactive) | > 100 µM (inactive) | > 100 µM (inactive) | 85.5 µM (inactive) | > 100 µM (inactive) | > 100 µM (inactive)
COc1ccc2c(=O)c(C)c(-c3ccccc3)oc2c1CN(C)C [DIMEFLINE] | > 100 µM (inactive) | > 100 µM (inactive) | > 100 µM (inactive) |  |  | > 100 µM (inactive) | > 100 µM (inactive) | > 100 µM (inactive) | > 100 µM (inactive) | > 100 µM (inactive) | 65.5 µM (inactive) | > 100 µM (inactive) | > 100 µM (inactive) |  | > 100 µM (inactive) | > 100 µM (inactive) |  | > 100 µM (inactive) | > 100 µM (inactive)
